Reference: patent publication US6218365A, “Serine protease inhibitors” (Akzo Nobel N.V., priority 1996, dated 2001)

Target: T1, Human thrombin (Homo sapiens, UniProt P00734)
T1 construct: purchased Centraal Laboratorium voor Bloedtransfusie, Amsterdam, The Netherlands
Assay: Anti-thrombin assay (hydrolysis of chromogenic substrate S-2238 by thrombin)
Assay type: biochemical
Conditions: final concentration causing 50% inhibition of the maximum absorbance of the blank; substrate S-2238, TNP buffer, 37° C.
Procedure: Thrombin (Factor IIa) is a factor in the coagulation cascade. The anti-thrombin activity of compounds of the present invention was assessed by measring spectrophotometrically the rate of hydrolysis of the chromogenic substrate s-2238 exterted by thrombin. Ths assay for anti-thrombin activity in a buffer system was used to assess the IC50 -value of a test compound.
Test medium: Trometbine-NaCl-polyethylene glycol 6000 (TNP) buffer. Reference compomd: 12581 (Kabi) Vehicle: TNP buffer. Solubilisation can be assisted with dimethylsulphoxide, methanol, ethanol, acetonitrile or tert.-butyl alcohol which are without adverse effects in concentrations up to 2.5% in the final reaction mixture.
Reagents*: 1. Tromethamine-NaCl (TN) buffer. Composition of the buffer: Tromethaine (Tris) 6.057 g (50 mmol), NaCl 5.844 g (100 mmol), water to 1 l. The pH of the solution is adjusted to 7.4 at 37° C. with HCl (10 mmol·l^-1). 2. TNP buffer: Polyethylene glycol 6000 is dissolved in TN buffer to give a concentration of 3 g·l^-1 3. S-2238 solution: One vial S-2238 (25 mg; Kabi Diagnostica, Sweden) is dissolved in 20 ml TN buffer to give a concentration of 1.25 mg·ml^-1 (2 mmol l^-1). 4. Thrombin solution: Human thrombin (16 000 nKat·vial^-1; Centraal Laboratorium voor Bloedtransfusie, Amsterdam, The Netherlands) is dissolved in TNP buffer to give a stock solution of 835 nKat·ml^-1. Immediately before use this solution is diluted with TNP buffer to give a concentration of 3.34 nKat·ml^-1.
The test and reference compounds are dissolved in Milli-Q water to give stock concentrations of 10^-2 mol·l^31 1. Each concentration is stepwise diluted with the vehicle to give concentrations of 10^-3, 10^31 4 and 10^-5 mol·l^-1. The dilutions, including the stock solution, are used in the assay (fina concentrations in the reaction mixture: 3·10^-3; 10^31 3; […]; 3·10^-5; 10^-5; 3·10^-6 and 10^-6 mol·l^-1, respectively).
At room temperature 0.075 ml and 0.025 ml test compound or reference compound solutions or vehicle are alternately pipetted into the wells of a microtiter plate and these solutions are diluted with 0.115 ml and […] TNP buffer, respectively. An aliquot of 0.030 ml S-2238 solution is added to each well and the plate is preheated and pre-incubated with shaking in an incubator (Amersham) for 10 min. at 37° C. Following pre-incubation the hydrolysis of S-2238 is started by addition of 0.030 ml thrombin solution to each well. The plate is incubated (with shaking for 30 s) at 37° C. Starting after 1 min of incubation, the absorbance of each sample at 405 nm is measured every 2 min. for a period of 90 min. using a kinetic microtiter plate reader (Twinreader plus, Flow Laboratories).
All data are collected in an IBM personal computer using LOTUS-MEASURE. For each compound concentration (expressed in mol·l^-1 reaction mixture) and for the blank the absorbance is plotted versus the reaction time in min.
Evaluation of responses: For each final concentration the maximum absorbance was calculated from the assay plot. The IC50 -value (final concentration, expressed in μmol·l^-1, causing 50% inhibition of the maximum absorbance of the blank) was calculated using the logit transformation analysis according to Hafier et al. (Arzneim.-Forsch.ADrug Res. 1977; 27(II): 1871-3).

Row | IC50 [nM] | Substance
1 | 950 | 3,3-Diphenyipropionyl--Pro--Ppa.PSI.[COCO]--OH [Example 15]
2 | 2600 | HOOC--CH2 --D--Coa--Pro--Ppa--(2-thiazolyl) [Example 53]
3 | 2830 | HOOC--CH2 --p--Cl--D--Phe--Pro--Ppa--(2-thiazolyl) [Example 47]

Continued, substance first:

Row | Substance | IC50 [nM]
4 | EthylSOx --D--Phe--Pr0--.PSI.[COCO]--NH2 [Example 38] | 1800
5 | HOOC--CH2 --D--Cha--Pro--Ppa.PSI.[COCO]--NHMe [Example 31] | 245
6 | HOOC--CH2 --D--Phe--Pro--Ppa.PSI.[COCO]--OH [Example 3] | 540
